Target: T1, Acetaldehyd-Dehydrogenase PS-DmpF (Pseudomonas sp., UniProt Q52060)
T1 construct: made in house; host or cells: E. coli BL21 (DE3), vector pET-21a(+)
T1 sequence (Q52060 1-312): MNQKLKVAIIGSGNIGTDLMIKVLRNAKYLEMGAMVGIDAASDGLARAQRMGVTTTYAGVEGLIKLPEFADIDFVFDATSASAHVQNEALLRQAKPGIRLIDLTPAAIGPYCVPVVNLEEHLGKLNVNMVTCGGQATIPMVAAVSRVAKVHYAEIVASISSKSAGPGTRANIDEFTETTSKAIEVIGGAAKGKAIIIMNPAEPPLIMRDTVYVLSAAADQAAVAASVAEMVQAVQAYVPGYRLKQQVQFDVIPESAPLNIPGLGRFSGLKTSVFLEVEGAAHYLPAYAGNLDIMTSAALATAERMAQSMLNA
Experiment: photometric test of inhibition of PS-DmpF by Crotonyl-CoA in mixtures with Butyryl-CoA
Format: biochemical
Settings: Butyryl-CoA and Crotonyl-CoA mixed in different ratios, Figur 4
Description: Im Rahmen der Photometertests wurde festgestellt, dass die Acetaldehyd-Dehydrogenase DmpF aus Pseudomonas sp. keine Aktivität gegenüber Crotonyl-CoA zeigte. Daher wurde untersucht, ob Crotonyl-CoA kein Substrat für dieses Enzym darstellt oder eine inhibitorische Wirkung auf das Enzym aufweist. Dazu wurden Butyryl-CoA, welches von der Acetaldehyd-Dehydrogenase umgesetzt wird, und Crotonyl-CoA in unterschiedlichen Verhältnissen gemischt und die Aktivität der PS-DmpF gegen diese Substratmischungen untersucht (Figur 4). Die in Figur 4 zusammengefassten Ergebnisse zeigen, dass die Aktivität der PS-DmpF abnahm, je mehr Crotonyl-CoA im Ansatz enthalten ist. Dies bedeutet, dass Crotonyl-CoA inhibierend auf die Acetaldehyd-Dehydrogenase wirkt.

inhibitorische Wirkung auf das Enzym: inhibierend
SMILES: C/C=C/C(=O)SCCNC(=O)CCNC(=O)[C@H](O)C(C)(C)COP(=O)(O)OP(=O)(O)OC[C@H]1O[C@@H](n2cnc3c(N)ncnc32)[C@H](O)[C@@H]1OP(=O)(O)O [Crotonyl-CoA]

Source: EP3026118A1, “Enzymatic process for producing 3-butenal and 3-buten-1-ol” (LANXESS Deutschland GmbH, priority 2014, dated 2016)
